The values below come from ChEMBL document CHEMBL4673381, “Novel Hexahydro-1H-Pyrazino[1,2-a]pyrazine Compounds for Treating Autoimmune Diseases” (ACS Med Chem Lett, 2021).

pIC50: −log10 of the molar value.

In this test the target is T1, Toll-like receptor 9 (Homo sapiens, UniProt Q9NR96).
T1 sequence (Q9NR96 whole entry): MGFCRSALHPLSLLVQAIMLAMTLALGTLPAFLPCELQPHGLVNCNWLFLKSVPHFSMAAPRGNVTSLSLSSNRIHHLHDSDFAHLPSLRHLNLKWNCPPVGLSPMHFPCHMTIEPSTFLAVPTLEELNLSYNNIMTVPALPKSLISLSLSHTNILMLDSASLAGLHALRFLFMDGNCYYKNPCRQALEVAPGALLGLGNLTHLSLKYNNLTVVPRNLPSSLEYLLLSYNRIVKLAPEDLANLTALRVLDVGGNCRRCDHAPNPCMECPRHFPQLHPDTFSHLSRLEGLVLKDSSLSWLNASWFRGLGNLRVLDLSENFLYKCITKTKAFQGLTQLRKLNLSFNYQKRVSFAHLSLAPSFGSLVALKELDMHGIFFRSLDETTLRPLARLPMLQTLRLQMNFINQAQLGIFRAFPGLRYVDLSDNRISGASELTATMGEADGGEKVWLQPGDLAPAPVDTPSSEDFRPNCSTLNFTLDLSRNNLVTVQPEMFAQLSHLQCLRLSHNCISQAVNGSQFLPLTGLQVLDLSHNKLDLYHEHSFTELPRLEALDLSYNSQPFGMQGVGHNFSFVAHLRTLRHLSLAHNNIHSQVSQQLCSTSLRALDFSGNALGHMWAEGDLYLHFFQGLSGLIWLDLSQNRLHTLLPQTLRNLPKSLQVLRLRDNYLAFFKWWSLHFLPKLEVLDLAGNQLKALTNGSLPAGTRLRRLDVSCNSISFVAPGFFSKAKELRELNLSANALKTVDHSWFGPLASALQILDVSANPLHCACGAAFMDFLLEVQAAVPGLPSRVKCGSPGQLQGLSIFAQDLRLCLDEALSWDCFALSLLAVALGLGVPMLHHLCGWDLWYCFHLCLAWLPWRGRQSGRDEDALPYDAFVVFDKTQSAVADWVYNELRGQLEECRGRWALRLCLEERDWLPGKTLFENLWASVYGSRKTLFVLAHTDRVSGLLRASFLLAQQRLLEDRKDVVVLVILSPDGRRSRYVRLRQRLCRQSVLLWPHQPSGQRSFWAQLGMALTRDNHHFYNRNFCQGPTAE
Description: Inhibition of human TLR9 expressed in HEK-Blue cells assessed as inhibition of ODN2006-induced NF-kappaB and AP-1 activation measured after 20 hrs by quanti-blue based SEAP reporter gene assay. It counts as cell-based, HEK-Blue hTLR9.

For `C[C@@H]1CN(c2ccc(C#N)c3ncccc23)C[C@@H]2CN(c3cccc4c3CCNC4)CCN21`, the pIC50 is 7.27.
As for `[2H]c1ccc2c(N3CC4CN(c5ncc(N6CCOC[C@H](N)C6)cc5C)CCN4[C@@H](C)C3)ccc(C#N)c2n1` (some centres not stated), the pIC50 is 7.15.
